Where two headings read alike, the source gives them in different places.
How the values were obtained:
[1] = target: ABL1(E255K) (Homo sapiens, UniProt P00519, E255K); conditions: phosphorylated; 0.1 µM; binder
[2] = target: ABL1(H396P) (Homo sapiens, UniProt P00519, H396P); conditions: 0.1 µM, binder
[3] = target: ACVR1 (Homo sapiens, UniProt Q04771); conditions: 0.1 µM; binder
[4] = target: ADCK3 (Homo sapiens, UniProt Q8NI60); conditions: 0.1 µM; binder
[5] = target: ALK(L1196M) (Homo sapiens, UniProt Q9UM73, L1196M); conditions: 0.1 µM; binder
[6] = target: CAMK2D (Homo sapiens, UniProt Q13557); conditions: 0.1 µM; binder
[7] = target: CAMKK2 (Homo sapiens, UniProt Q96RR4); conditions: 0.1 µM; binder
[8] = target: CDK3 (Homo sapiens, UniProt Q00526); conditions: 0.1 µM; binder
[9] = target: CDK4 (Homo sapiens, UniProt P11802); conditions: 0.1 µM; binder
[10] = target: CDK5 (Homo sapiens, UniProt Q00535); conditions: 0.1 µM; binder
[11] = target: CDK7 (Homo sapiens, UniProt P50613); conditions: 0.1 µM; binder
[12] = target: EGFR(T790M) (Homo sapiens, UniProt P00533, T790M); conditions: 0.1 µM; binder
[13] = target: ERK8 (Homo sapiens, UniProt Q8TD08); conditions: 0.1 µM; binder
[14] = target: FGFR1 (Homo sapiens, UniProt P11362); conditions: 0.1 µM; binder
[15] = target: FLT3(ITD,D835V) (Homo sapiens, UniProt P36888, D835V/ITD); conditions: 0.1 µM; binder
[16] = target: FYN (Homo sapiens, UniProt P06241); conditions: 0.1 µM; binder
[17] = target: JNK1 (Homo sapiens, UniProt P45983); conditions: 0.1 µM; binder
[18] = target: JNK3 (Homo sapiens, UniProt P53779); conditions: 0.1 µM; binder
[19] = target: MARK2 (Homo sapiens, UniProt Q7KZI7); conditions: 0.1 µM; binder
[20] = target: MKNK1 (Homo sapiens, UniProt Q9BUB5); conditions: 0.1 µM; binder
[21] = target: MYLK4 (Homo sapiens, UniProt Q86YV6); conditions: 0.1 µM; binder
[22] = target: PAK4 (Homo sapiens, UniProt O96013); conditions: 0.1 µM; binder
[23] = target: PIK3CA(E545K) (Homo sapiens, UniProt P42336, E545K); conditions: 0.1 µM; binder
[24] = target: PIK3CB (Homo sapiens, UniProt P42338); conditions: 0.1 µM; binder
[25] = target: PKMYT1 (Homo sapiens, UniProt Q99640); conditions: 0.1 µM; binder
[26] = target: PRKCQ (Homo sapiens, UniProt Q04759); conditions: 0.1 µM; binder
[27] = target: RIPK1 (Homo sapiens, UniProt Q13546); conditions: 0.1 µM; binder
[28] = target: ROS1 (Homo sapiens, UniProt P08922); conditions: 0.1 µM; binder
[29] = target: TSSK1B (Homo sapiens, UniProt Q9BXA7); conditions: 0.1 µM; binder
[30] = target: YANK2 (Homo sapiens, UniProt Q9NY57); conditions: 0.1 µM; binder

Chain of CDK4 (P11802 whole entry): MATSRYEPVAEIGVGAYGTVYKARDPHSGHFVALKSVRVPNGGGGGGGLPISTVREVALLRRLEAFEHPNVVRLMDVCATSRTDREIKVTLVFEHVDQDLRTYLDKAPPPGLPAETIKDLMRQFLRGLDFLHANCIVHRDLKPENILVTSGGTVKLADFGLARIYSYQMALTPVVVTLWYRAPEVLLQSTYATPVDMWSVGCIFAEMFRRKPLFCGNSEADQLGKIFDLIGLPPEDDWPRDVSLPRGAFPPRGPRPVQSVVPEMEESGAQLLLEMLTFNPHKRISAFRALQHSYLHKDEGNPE
Chain of ADCK3 (Q8NI60 whole entry): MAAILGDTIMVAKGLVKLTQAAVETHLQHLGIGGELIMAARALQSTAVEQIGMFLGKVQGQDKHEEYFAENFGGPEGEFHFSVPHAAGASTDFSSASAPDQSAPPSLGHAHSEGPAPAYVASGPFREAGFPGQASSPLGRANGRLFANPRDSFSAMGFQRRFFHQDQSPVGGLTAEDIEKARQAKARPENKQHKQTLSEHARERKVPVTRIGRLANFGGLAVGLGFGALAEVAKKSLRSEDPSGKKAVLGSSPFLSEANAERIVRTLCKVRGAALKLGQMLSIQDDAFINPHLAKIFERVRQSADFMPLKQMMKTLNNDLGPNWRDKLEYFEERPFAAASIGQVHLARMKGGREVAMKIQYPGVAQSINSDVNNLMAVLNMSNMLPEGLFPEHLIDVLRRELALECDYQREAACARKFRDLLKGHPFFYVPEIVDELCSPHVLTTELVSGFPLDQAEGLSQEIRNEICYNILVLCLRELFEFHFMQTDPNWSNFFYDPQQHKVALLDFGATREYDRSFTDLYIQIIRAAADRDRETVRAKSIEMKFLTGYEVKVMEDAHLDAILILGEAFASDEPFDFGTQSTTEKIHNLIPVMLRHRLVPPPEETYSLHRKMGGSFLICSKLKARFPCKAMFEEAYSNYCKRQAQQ
Chain of CAMK2D (Q13557 whole entry): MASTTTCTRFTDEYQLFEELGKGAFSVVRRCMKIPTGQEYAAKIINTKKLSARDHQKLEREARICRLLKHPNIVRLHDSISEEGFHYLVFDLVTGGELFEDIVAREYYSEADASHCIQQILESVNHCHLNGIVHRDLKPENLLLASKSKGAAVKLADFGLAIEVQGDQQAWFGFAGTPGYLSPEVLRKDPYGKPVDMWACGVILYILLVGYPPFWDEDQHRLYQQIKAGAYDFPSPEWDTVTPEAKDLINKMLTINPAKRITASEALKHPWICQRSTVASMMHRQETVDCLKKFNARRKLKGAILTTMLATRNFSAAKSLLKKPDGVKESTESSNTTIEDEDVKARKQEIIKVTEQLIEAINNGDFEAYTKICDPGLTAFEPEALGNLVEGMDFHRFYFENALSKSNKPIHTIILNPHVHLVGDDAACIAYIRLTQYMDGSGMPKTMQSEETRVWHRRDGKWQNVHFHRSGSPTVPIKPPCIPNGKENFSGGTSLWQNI
Chain of PRKCQ (Q04759 whole entry): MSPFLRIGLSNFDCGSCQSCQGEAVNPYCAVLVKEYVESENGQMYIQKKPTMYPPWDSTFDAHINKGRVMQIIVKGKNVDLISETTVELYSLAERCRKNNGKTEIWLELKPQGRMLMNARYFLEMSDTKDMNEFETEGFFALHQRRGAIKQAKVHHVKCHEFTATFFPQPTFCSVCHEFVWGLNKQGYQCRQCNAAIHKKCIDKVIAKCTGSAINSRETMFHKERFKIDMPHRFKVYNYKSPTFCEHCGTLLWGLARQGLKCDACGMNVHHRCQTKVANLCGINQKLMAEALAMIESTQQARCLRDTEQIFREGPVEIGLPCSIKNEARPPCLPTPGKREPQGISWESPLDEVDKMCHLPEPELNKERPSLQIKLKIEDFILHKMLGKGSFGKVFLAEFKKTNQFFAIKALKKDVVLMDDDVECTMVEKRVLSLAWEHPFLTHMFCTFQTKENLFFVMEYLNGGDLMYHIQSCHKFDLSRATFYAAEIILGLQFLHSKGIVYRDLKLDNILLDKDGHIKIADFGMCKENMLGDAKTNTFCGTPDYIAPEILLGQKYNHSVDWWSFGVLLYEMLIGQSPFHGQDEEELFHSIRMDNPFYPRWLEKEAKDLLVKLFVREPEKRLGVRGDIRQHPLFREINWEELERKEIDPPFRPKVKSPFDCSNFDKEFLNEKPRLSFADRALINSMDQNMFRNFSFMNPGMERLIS
Chain of ROS1 (P08922 whole entry): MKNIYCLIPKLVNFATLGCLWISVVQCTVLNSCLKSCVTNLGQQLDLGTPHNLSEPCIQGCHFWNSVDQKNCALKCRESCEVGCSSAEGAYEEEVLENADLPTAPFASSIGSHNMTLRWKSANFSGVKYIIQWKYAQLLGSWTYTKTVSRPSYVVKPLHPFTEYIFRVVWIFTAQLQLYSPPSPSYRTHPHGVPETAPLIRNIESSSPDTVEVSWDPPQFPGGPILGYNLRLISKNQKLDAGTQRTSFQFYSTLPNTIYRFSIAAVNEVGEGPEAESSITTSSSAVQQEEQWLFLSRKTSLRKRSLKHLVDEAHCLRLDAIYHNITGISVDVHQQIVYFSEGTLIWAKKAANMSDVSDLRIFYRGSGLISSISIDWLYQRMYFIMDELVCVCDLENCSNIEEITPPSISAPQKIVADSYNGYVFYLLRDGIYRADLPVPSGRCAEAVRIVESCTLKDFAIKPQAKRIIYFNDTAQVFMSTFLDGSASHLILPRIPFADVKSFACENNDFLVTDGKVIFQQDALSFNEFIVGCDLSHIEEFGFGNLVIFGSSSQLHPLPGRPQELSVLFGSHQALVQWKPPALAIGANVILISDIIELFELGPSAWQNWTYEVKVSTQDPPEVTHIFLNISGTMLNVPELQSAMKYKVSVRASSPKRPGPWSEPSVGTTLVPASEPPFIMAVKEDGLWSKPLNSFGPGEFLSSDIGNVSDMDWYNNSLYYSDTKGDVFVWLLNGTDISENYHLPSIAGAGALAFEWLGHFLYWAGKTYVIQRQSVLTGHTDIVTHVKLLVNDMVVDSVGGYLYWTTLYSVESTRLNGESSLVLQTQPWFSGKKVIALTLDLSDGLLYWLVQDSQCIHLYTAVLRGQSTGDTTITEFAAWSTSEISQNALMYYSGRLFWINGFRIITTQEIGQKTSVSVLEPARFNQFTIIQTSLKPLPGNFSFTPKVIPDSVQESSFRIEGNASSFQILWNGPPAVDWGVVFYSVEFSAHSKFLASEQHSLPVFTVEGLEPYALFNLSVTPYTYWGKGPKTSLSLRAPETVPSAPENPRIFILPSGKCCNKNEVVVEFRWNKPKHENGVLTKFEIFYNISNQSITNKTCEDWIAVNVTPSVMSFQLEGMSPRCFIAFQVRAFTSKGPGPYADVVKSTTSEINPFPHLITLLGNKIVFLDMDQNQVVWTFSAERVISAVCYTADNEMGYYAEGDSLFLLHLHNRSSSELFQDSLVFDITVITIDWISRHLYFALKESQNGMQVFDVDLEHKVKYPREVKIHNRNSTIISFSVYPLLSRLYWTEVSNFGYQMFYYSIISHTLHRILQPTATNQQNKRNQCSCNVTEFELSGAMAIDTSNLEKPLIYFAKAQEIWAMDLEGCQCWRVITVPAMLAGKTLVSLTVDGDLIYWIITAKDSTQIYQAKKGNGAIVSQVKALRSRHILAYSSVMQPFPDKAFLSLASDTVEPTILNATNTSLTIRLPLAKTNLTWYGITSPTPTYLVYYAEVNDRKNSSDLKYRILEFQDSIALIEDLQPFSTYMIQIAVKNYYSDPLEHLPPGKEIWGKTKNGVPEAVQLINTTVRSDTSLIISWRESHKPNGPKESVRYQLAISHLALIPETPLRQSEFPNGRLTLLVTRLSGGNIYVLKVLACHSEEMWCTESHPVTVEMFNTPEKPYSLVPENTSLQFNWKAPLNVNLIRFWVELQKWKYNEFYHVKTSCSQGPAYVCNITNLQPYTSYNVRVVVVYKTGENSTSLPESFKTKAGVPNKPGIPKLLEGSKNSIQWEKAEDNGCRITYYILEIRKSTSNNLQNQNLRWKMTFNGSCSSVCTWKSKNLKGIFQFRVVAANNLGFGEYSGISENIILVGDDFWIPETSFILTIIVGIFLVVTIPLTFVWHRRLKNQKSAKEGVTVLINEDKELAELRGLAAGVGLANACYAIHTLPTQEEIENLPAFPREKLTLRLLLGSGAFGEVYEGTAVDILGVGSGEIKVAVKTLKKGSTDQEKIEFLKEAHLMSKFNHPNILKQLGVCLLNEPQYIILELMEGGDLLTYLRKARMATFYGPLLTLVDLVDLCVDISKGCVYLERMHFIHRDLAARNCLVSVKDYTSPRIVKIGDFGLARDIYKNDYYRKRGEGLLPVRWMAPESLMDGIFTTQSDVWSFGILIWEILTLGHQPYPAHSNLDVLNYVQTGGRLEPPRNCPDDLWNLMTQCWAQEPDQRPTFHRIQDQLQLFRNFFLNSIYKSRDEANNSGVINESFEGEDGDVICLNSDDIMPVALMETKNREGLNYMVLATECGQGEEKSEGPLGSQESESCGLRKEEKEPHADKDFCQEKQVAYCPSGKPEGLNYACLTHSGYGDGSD
Chain of TSSK1B (Q9BXA7 whole entry): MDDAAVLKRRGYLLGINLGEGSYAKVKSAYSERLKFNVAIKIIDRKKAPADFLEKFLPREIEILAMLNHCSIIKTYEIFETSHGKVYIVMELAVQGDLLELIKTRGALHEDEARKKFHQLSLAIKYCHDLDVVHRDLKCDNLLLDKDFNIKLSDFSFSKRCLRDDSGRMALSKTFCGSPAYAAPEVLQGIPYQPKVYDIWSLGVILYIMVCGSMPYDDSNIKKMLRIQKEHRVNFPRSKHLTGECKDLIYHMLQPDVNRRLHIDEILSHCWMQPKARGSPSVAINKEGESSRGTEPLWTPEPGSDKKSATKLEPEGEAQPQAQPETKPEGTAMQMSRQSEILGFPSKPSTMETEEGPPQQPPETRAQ

CNc1ncc2cc(-c3ccc(-c4cccc(C)n4)cc3Cl)c(=O)n(C[C@H]3OC[C@H](N)CO3)c2n1 [compound 6, G-5555]
Percent Control [1]: 100% | Percent Control ([2]; nonphosphorylated): 79% | Percent Control ([2]; phosphorylated): 97% | Percent Control [3]: 97% | Percent Control [4]: 100% | Percent Control [5]: 100% | Percent Control [6]: 100% | Percent Control [7]: 100% | Percent Control [8]: 100% | Percent Control [9]: 100% | Percent Control [10]: 100% | Percent Control [11]: 100% | Percent Control [12]: 100% | Percent Control [13]: 100% | Percent Control [14]: 100% | Percent Control [15]: 88% | Percent Control [16]: 100% | Percent Control [17]: 80% | Percent Control [18]: 92% | Percent Control [19]: 100% | Percent Control [20]: 100% | Percent Control [21]: 100% | Percent Control [22]: 100% | Percent Control [23]: 85% | Percent Control [24]: 100% | Percent Control [25]: 100% | Percent Control [26]: 81% | Percent Control [27]: 100% | Percent Control [28]: 100% | Percent Control [29]: 98% | Percent Control [30]: 3.5%
